The values below come from patent US8580762B2, “Substituted purine and 7-deazapurine compounds” (Epizyme, Inc., priority 2010, dated 2013).

pIC50: −log10 of the molar value. Bounds are passed on as bounds.

This experiment deals with DOT1L(1-416) (Homo sapiens, UniProt Q8TEK3). Put plainly: Determination of IC50: DOT1L(1-416) methyltransferase assay, 3H-SAM, oligonucleosome substrate, Flashplate. Type of experiment: biochemical. To be noted: class symbols; read-out: DOT1L IC50. As for the experimental part: Determination of IC50. Test compounds were serially diluted 3 fold in DMSO for 10 points and 1 μl was plated in a 384 well microtiter plate. […] 10 μl per well of substrate mix (same assay buffer with 200 nM S-[methyl-^3H]-adenosyl-L methionine, 600 nM of unlabeled […], and 20 nM oligonueleosome) was added to initiate the reaction. Reaction was incubated for 120 minutes at room temperature and quenched with 10 μl per well of 100 μM S-methyl-adenosyl-L methionine. For detection, substrate from 50 μl of reaction was immobilized on a 384 well Streptavidin coated Flashplate (Perkin Elmer) (also coated with 0.2% polyethyleneimine) and read on a Top Count scintillation counter (Perkin Elmer).
Chain of DOT1L(1-416) (Q8TEK3 1-416): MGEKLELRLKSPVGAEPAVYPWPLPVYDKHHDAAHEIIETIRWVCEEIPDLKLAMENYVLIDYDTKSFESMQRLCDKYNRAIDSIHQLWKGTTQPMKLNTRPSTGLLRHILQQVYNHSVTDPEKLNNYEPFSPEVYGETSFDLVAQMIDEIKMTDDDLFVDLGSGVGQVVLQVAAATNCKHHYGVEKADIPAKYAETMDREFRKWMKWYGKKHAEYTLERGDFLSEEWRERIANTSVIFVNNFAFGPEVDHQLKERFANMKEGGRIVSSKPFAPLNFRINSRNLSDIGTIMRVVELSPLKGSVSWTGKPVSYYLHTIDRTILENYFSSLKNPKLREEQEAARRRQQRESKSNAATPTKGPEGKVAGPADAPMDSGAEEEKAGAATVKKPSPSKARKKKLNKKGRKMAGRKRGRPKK
On to `CN(C[C@H]1C[C@@H](n2ccc3c(N)ncnc32)[C@H](O)[C@@H]1O)[C@H]1C[C@H](CCc2nc3cc(Br)ccc3[nH]2)C1` [Compound 55, (1R,2S,3R,5R)-3-(4-amino-7H-pyrrolo[2,3-d]pyrimidin-7-yl)-5-((((1s,3R)-3-(2-(5-bromo-1H-benzo[d]imidazol-2-yl)ethyl)cyclobutyl)(methyl)amino)methyl)cyclopentane-1,2-diol], for which the negative logarithm of the IC50 (pIC50) is over 7.00. Consider `CC(C)N(C[C@H]1O[C@@H](n2cnc3c(N)ncnc32)[C@H](O)[C@@H]1O)C1CC(CCc2nc3cc(C4(C)CC4)ccc3[nH]2)C1` (stereo partly drawn) [Compound 139, (2R,3R,4S,5R)-2-(6-amino-9H-purin-9-yl)-5-((isopropyl(3-(2-(5-(1-methylcyclopropyl)-1H-benzo[d]imidazol-2-yl)ethyl)cyclobutyl)amino)methyl)tetrahydro-furan-3,4-diol], for which the negative-log IC50 (pIC50) was over 7.00. `CC(C)N(C[C@@H]1C[C@@H](O)[C@H](n2ccc3c(N)ncnc32)C1)[C@H]1C[C@@H](CCc2nc3cc(C(C)(C)C)ccc3[nH]2)C1` [Compound 101, (1R,2R,4S)-2-(4-amino-7H-pyrrolo[2,3-d]pyrimidin-7-yl)-4-((((1r,3R)-3-(2-(5-(tert-butyl)-1H-benzo[d]imidazol-2-yl)ethyl)cyclobutyl) (isopropyl)amino)methyl)cyclopentanol]: the pIC50 is 6.00 to 7.00.

With `CN(C[C@H]1O[C@@H](n2cnc3c(N)ncnc32)[C@H](O)[C@@H]1O)[C@H]1C[C@H](CCc2nc3cc(OC(F)(F)F)ccc3[nH]2)C1` [Compound 97], the pIC50 was over 7.00. For the compound `CN(C[C@H]1C[C@@H](n2ccc3c(N)ncnc32)[C@H](O)[C@@H]1O)[C@H]1C[C@@H](CCc2nc3cc(C4(C)CCC4)ccc3[nH]2)C1` [Compound 36, (1R,2S,3R,5R)-3-(4-amino-7H-pyrrolo[2,3-d]pyrimidin-7-yl)-5-((methyl((1r,3S)-3-(2-(5-(1-methylcyclobutyl)-1H-benzo[d]imidazol-2-yl)ethyl)cyclobutyl)amino)methyl)cyclopentane-1,2-diol], the pIC50 was over 7.00.

In the case of `CN(C[C@H]1O[C@@H](n2cnc3c(N)ncnc32)[C@H](O)[C@@H]1O)C1CC(NC(=O)Nc2ccc(C(C)(C)C)cc2)C1` (stereo partly drawn) [Compound 8, 1-(3-((((2R,3S,4R,5R)-5-(6-amino-9H-purin-9-yl)-3,4-dihydroxytetrahydrofuran-2-yl)methyl)(methyl)amino)cyclobutyl)-3-(4-(tert-butyl)phenyl)urea], the negative-log IC50 (pIC50) is 4.30 to 5.00. On to `CN(C[C@H]1C[C@@H](n2ccc3c(N)ncnc32)[C@H](O)[C@@H]1O)[C@H]1C[C@H](CCc2nc3cc(Cl)c(Cl)cc3[nH]2)C1` [Compound 58, (1R,2S,3R,5R)-3-(4-amino-7H-pyrrolo[2,3-d]pyrimidin-7-yl)-5-((((1s,3R)-3-(2-(5,6-dichloro-1H-benzo[d]imidazol-2-yl)ethyl)cyclobutyl)(methyl)amino)methyl)cyclopentane-1,2-diol], for which the pIC50 is over 7.00. For `CC(C)N(C[C@H]1O[C@@H](n2cnc3c(N)ncnc32)[C@H](O)[C@@H]1O)[C@H]1C[C@@H](CCc2nc3cc(C4CCC4)ccc3[nH]2)C1` [Compound 115, (2R,3R,4S,5R)-2-(6-amino-9H-purin-9-yl)-5-((((1r,3S)-3-(2-(5-cyclobutyl-1H-benzo[d]imidazol-2-yl)ethyl)cyclobutyl) (isopropyl)amino)methyl)tetrahydrofuran-3,4-diol], the pIC50 is over 7.00. The result for `CN(C[C@H]1C[C@@H](n2ccc3c(N)ncnc32)[C@H](O)[C@@H]1O)C1CC(CCc2nc3cc(Br)ccc3[nH]2)C1` (stereo partly drawn) [Compound 26, (1R,2S,3R,5R)-3-(4-amino-7H-pyrrolo[2,3-d]pyrimidin-7-yl)-5-(((3-(2-(5-bromo-1H-benzo[d]imidazol-2-yl)ethyl)cyclobutyl)(methyl)amino)methyl)cyclopentane-1,2-diol] reads over 7.00.

What is called pIC50 is the IC50 on a negative log10 scale, so that one unit is a factor of ten.
